For this assay, the target named is T1, Constitutive androstane receptor (CAR) (Homo sapiens, UniProt Q14994).
T1 construct: The pGL4-gtPBREM plasmid was transfected into Hep3B cells; endogenous in cells
T1 sequence (Q14994 1-352): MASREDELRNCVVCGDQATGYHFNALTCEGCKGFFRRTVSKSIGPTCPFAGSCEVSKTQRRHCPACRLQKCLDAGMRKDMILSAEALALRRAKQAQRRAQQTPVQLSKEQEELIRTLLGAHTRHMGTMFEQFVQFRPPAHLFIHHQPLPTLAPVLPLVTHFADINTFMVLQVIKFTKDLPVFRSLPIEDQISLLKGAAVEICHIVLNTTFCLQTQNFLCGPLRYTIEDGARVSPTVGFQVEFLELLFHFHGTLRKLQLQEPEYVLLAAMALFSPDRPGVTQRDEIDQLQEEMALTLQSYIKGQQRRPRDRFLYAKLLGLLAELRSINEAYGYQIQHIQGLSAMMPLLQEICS
The experiment in a line: In vitro CAR activation screening assay (UGT1A1 promoter gtPBREM-pGL4 luciferase reporter in Hep3B-gtPBREM cells). Type of assay: cell-based. Conditions: for activation at 10 µM: read-out: CAR Activation Fold. From the text:
Until now, there is no commercially available high throughput screening method for CAR activation. Traditionally, CAR activation can be detected in western blots by its downstream signals such as UGT1A1, MRP2 or CYP2B6. […] However, this method was slow and pricy. In order to rapidly screen all the compounds for CAR activation at less cost, an in vitro CAR activation screening assay was developed: DNA was extracted from Hep3B cells and UGT1A1 promoter was obtained using PCR amplification. Ligation between UGT1A1 promoter and pGL4 vector was performed and the plasmid was amplified via E. coli replication. The desired plasmid was extracted from E. coli and transfected into Hep3B. The desired colony bearing UGT1A1 promoter-pGL4 plasmid was selected by neomycin. CAR activation was measured by adding tested compounds to Hep3B for several hours and luminescence was measured. Higher activation will get higher luminescence readout. This assay system was validated with two different CAR agonists: CITCO (direct agonist) and scoparone (an indirect agonist). […] Different concentration of scoparone at 1, 5, 10 and 20 μM had been tested either for luciferase assay or downstream UGT1A1 and MRP2 expression (data not shown) and 10 μM was selected to be the best condition for the following work.
After successfully establishing the in vitro assay, all of the coumarin compounds were subjected to the screening (at 10 μM) and their SAR was discussed. Although the reporter system can successfully identify CAR-activating compounds under 8 h and display better efficiency and sensitivity compared with western blots, it only presented a medium luciferase response. According to previous studies, CITCO was reported to only moderately enhance human CAR (less than 2-fold), compared with the enhance provided by TCPOBOP for murine CAR (5- to 10-fold) in luciferase reporter assays. […] Another possibility for the medium response in our reporter system might be the contribution of the whole gtPBREM element which might include response-suppressive elements that was used and the single nucleotide variation of DR3 element which was reported to slightly reduce the original UGT1A1 activity.
The genomic DNA was isolated from Hep3B cells using Wizard® Genomic DNA Purification Kit (Promega, Fitchburg, WI, USA). The promoter region of UGT1A1 gene, gtPBREM element, was amplified by AccuPrime^TM Taq DNA Polymerase High Fidelity Kit (Invitrogen, MA, USA). The sequence of the amplified element was confirmed by DNA sequencing company and cloned into pGL4 luciferase reporter vector. The pGL4-gtPBREM plasmid was transfected into Hep3B cells. The stable pGL4-gtPBREM transfected Hep3B cells, Hep3B-gtPBREM cells, were established after G418 selection. The luciferase activity represented of CAR activation ability was measured using individual established clone. Further, CAR-shRNA was obtained from the Genomic Research Center and transfected into Hep3B-gtPBREM cells. The transient transfected shCAR-Hep3B-gtPBREM cells were used for further luciferase assays.
The Hep3B-gtPBREM cells and shCAR-Hep3B-gtPBREM cells (1.5 × 10^5 cells/well) were seeded into 12-well plates for overnight then pre-determined concentration compounds were added for desired time. After treatment, transfected cells were washed twice in PBS, lysated with 1× passive lysis buffer and luciferase intensity of equal amount of cell lysate was measured by a Synergy HT Multi-Mode Microplate Reader (BioTek, Winooski, VT, USA).

Setting [1] is: Table 1, 10 μM, (luminescence of compound − luminescence of scoparone)/luminescence of scoparone × 100%.
[2] abbreviates: Table 2, 10 μM, (luminescence of compound − luminescence of scoparone)/luminescence of scoparone × 100%.
The mark [3] stands for this setting: Table 3, 10 μM, (luminescence of compound − luminescence of scoparone)/luminescence of scoparone × 100%.

Entries after “also recorded” stand apart in the source; their conditions may differ. Read-outs that look alike come from different tables or passages of the source.

Turning to `O=c1ccc2c(O)cccc2o1` [Compound 1, 5-hydroxycoumarin], under setting [1], the activation at 10 µM is 6%.

On to `COc1cccc2oc(=O)ccc12` [Compound 2, 5-methoxycoumarin], for which the activation at 10 µM under setting [1] is -20%.

For the molecule `CC(=O)Oc1cccc2oc(=O)ccc12` [Compound 3], the activation at 10 µM under setting [1] was -32%.

In the case of `C=CCOc1cccc2oc(=O)ccc12` [Compound 4], under setting [1], the activation at 10 µM was -15%.

In the case of `CCCCOc1cccc2oc(=O)ccc12` [Compound 5], the activation at 10 µM under setting [1] is -9%.

Take `CC(C)=CCCC(C)=CCOc1cccc2oc(=O)ccc12` [Compound 7]: the activation at 10 µM under setting [1] is -18%.

For `CC(C)=CCCC(C)=CCCC(C)=CCOc1cccc2oc(=O)ccc12` [Compound 8], the activation at 10 µM under setting [1] is 2%.

In the case of `O=c1ccc2cc(O)ccc2o1` [Compound 9, 6-hydroxycoumarin], the activation at 10 µM under setting [1] was -8%.

With `COc1ccc2oc(=O)ccc2c1` [Compound 10, 6-methoxycoumarin], the activation at 10 µM under setting [1] is 32%.

For `CC(=O)Oc1ccc2oc(=O)ccc2c1` [Compound 12], the activation at 10 µM under setting [1] is -22%.

With `C=CCOc1ccc2oc(=O)ccc2c1` [Compound 13], the activation at 10 µM under setting [1] is -17%.

`CCCCOc1ccc2oc(=O)ccc2c1` [Compound 14]: the activation at 10 µM under setting [1] came out at 37%.

In the case of `CC(C)=CCOc1ccc2oc(=O)ccc2c1` [Compound 15], under setting [1], the activation at 10 µM is 22%.

Consider `CC(C)=CCCC(C)=CCOc1ccc2oc(=O)ccc2c1` [Compound 16], for which, under setting [1], the activation at 10 µM is 18%.

With `CC(C)=CCCC(C)=CCCC(C)=CCOc1ccc2oc(=O)ccc2c1` [Compound 17], the activation at 10 µM under setting [1] is -41%.

With `O=c1ccc2ccc(O)cc2o1` [Compound 18, umbelliferone], under setting [1], the activation at 10 µM was -1%.

For `COc1ccc2ccc(=O)oc2c1` [Compound 19, 7-methoxycoumarin], under setting [1], the activation at 10 µM is -9%.

With `CC(=O)Oc1ccc2ccc(=O)oc2c1` [Compound 21], the activation at 10 µM under setting [1] is -37%.

For `C=CCOc1ccc2ccc(=O)oc2c1` [Compound 22], the activation at 10 µM was -46%.

Take `CCCCOc1ccc2ccc(=O)oc2c1` [Compound 23]: the activation at 10 µM is -51%.

As for `CC(C)=CCOc1ccc2ccc(=O)oc2c1` [Compound 24], under setting [1], the activation at 10 µM was -35%.

Regarding `CC(C)=CCCC(C)=CCOc1ccc2ccc(=O)oc2c1` [Compound 25, aurapten], under setting [1], the activation at 10 µM was -13%.

With `CC(C)=CCCC(C)=CCCC(C)=CCOc1ccc2ccc(=O)oc2c1` [Compound 26], the activation at 10 µM under setting [1] was -29%.

Take `O=c1ccc2cccc(O)c2o1` [Compound 27, 8-hydroxycoumarin]: the activation at 10 µM under setting [1] is 40%.

With `COc1cccc2ccc(=O)oc12` [Compound 28, 8-methoxycoumarin], the activation at 10 µM under setting [1] was -8%.

With `CC(=O)Oc1cccc2ccc(=O)oc12` [Compound 29], under setting [1], the activation at 10 µM was -33%.

As to `C=CCOc1cccc2ccc(=O)oc12` [Compound 30], the activation at 10 µM under setting [1] is -34%.

`CCCCOc1cccc2ccc(=O)oc12` [Compound 31, 8-n-Butoxycoumarin]: the activation at 10 µM under setting [1] came to 4%.

As for `CC(C)=CCOc1cccc2ccc(=O)oc12` [Compound 32], the activation at 10 µM under setting [1] is 2%.

For `CC(C)=CCCC(C)=CCOc1cccc2ccc(=O)oc12` [Compound 33], the activation at 10 µM under setting [1] is -30%.

Consider `CC(C)=CCCC(C)=CCCC(C)=CCOc1cccc2ccc(=O)oc12` [Compound 34], for which the activation at 10 µM under setting [1] was 19%.

Take `O=c1ccc2cc(O)c(O)cc2o1` [Compound 35, esculetin]: under setting [2], the activation at 10 µM is -22%.

Consider `Cc1cc2ccc(=O)oc2cc1C` [Compound 36], for which the activation at 10 µM under setting [2] is -17%.

For the molecule `COc1cc2oc(=O)ccc2cc1O` [Compound 37, isoscopoletin], the activation at 10 µM under setting [2] is -10%.

As to `COc1cc2ccc(=O)oc2cc1O` [Compound 38, scopoletin], under setting [2], the activation at 10 µM was -1%.

For `O=c1ccc2cc3c(cc2o1)OCO3` [Compound 40, ayapin], the activation at 10 µM under setting [2] came out at 7%.

In the case of `O=c1ccc2cc3c(cc2o1)OCCO3` [Compound 41], the activation at 10 µM under setting [2] is -50%.

On to `CCOc1cc2ccc(=O)oc2cc1OCC` [Compound 42], for which the activation at 10 µM under setting [2] is -26%.

Turning to `CC(=O)Oc1cc2ccc(=O)oc2cc1OC(C)=O` [Compound 43], under setting [2], the activation at 10 µM was -11%.

`CCCOc1cc2ccc(=O)oc2cc1OCCC` [Compound 45]: under setting [2], the activation at 10 µM is -37%.

Turning to `CC(C)CCOc1cc2ccc(=O)oc2cc1OCCC(C)C` [Compound 48, 6,7-Di-isopentoxycoumarin], the activation at 10 µM under setting [2] was -61%.

Consider `CCCCCCOc1cc2ccc(=O)oc2cc1OCCCCCC` [Compound 49, 6,7-Dihexoxycoumarin], for which the activation at 10 µM under setting [2] is -5%.

In the case of `CC(C)=CCC/C(C)=C/COc1cc2ccc(=O)oc2cc1OC/C=C(\C)CCC=C(C)C` [Compound 51, 6,7-Digeranoxycoumarin], under setting [2], the activation at 10 µM is -32%.

With `COc1cc2oc(=O)ccc2cc1OC1OC(CO)C(O)C(O)C1O` (centres unmarked) [Compound 52, isoscopolin], the “CAR activation compared with scoparone” value (10 μM) is given as “superior CAR activating activity than scoparone”. Under setting [2], the activation at 10 µM is 35%.

For the molecule `COc1cc2ccc(=O)oc2cc1O[C@@H]1O[C@H](CO)[C@@H](O)[C@H](O)[C@H]1O` [Compound 53, scopolin], the “CAR activation compared with scoparone” value (10 μM) was “superior CAR activating activity than scoparone”. Besides, the activation at 10 µM under setting [2] is 17%.

For the molecule `COc1cc2oc(=O)ccc2c(OC)c1OC` [Compound 54, 5,6,7-trimethoxycoumarin], the activation at 10 µM under setting [3] is -19%.

Take `COc1cc2oc(=O)ccc2c(OC)c1O` [Compound 55, fraxinol]: the activation at 10 µM is -17%.

For `COc1cc(OC)c2ccc(=O)oc2c1OC` [Compound 56], the activation at 10 µM under setting [3] was -14%.

On to `COc1cc(OC)c2ccc(=O)oc2c1O` [Compound 57, 5,7-dimethoxy-8-hydroxycoumarin], for which, for the setting “10 μM”, the “CAR activation compared with scoparone” value is recorded as “comparable CAR activation effects to scoparone; also recorded: superior CAR activating activity than scoparone”. The activation at 10 µM under setting [3] stood at 2%.

`COc1cc2ccc(=O)oc2c(OC)c1OC` [Compound 58, 6,7,8-trimethoxycoumarin]: the “CAR activation compared with scoparone” value (10 μM) is recorded as “comparable CAR activation effects to scoparone”. For the same molecule, under setting [3], the activation at 10 µM came out at 0%.

With `COc1cc2ccc(=O)oc2c2c1OCO2` [Compound 59, 6-Methoxy-7,8-methylenedioxycoumarin], the “CAR activation compared with scoparone” value (10 μM) is “superior CAR activating activity than scoparone”. Further, the “increased CAR activation fold” value (10 μM, compared to scoparone) stood at 36%. Besides, the activation at 10 µM under setting [3] came out at 36%.

For `COc1c2c(c3oc(=O)ccc3c1OC)OCO2` [Compound 60, 5,6-dimethoxy-7,8-methylenedioxycoumarin], the “CAR activation compared with scoparone” value (10 μM) is listed as “good activity; also recorded: superior CAR activating activity than scoparone”. Also, the activation at 10 µM under setting [3] came to 12%.
